Assay [1] relates to CEM cells. In words: Toxicity in CEM cells. In kind it is cell-based, human. An excerpt:
Some of the 1,3-oxaselenolanyl nucleosides described herein can be used to treat abnormal cellular proliferation, including tumors and cancer. The extent of antiproliferative activity can be easily assessed by assaying the compound according to the procedure below in a CEM cell or other tumor or proliferative cell line assay. CEM cells are human lymphoma cells (a T-lymphoblastoid cell line that can be obtained from ATCC, Rockville, Md.). The toxicity of a compound to CEM cells provides useful information regarding the activity of the compound against tumors. The toxicity is measured as IC50 micromolar).
Drug solutions, including cycloheximide as a positive control, are plated in triplicate in 50 μl growth medium at 2 times the final concentration and allowed to equilibrate at 37° C. in a 5% CO2 incubator. […] Absorbance is read at 570 nm, blanking on the medium-only wells using a Biotek Biokinetics plate read (Biotek, Winooski, Vt.). Average percent inhibition of growth compared to the untreated control is calculated. IC50, IC90, slope and r value are calculated by the method of Chou and Talaly. Chou T-C, Talalay P. Quantitative analysis of dose-effect relationships: The combined effects of multiple drugs or enzyme inhibitors. […]

Assay [2] concerns uninfected human PBM cells. In words: Toxicity: growth of mitogen-stimulated uninfected human PBM cells. In kind it is cell-based. The protocol:
Mitogen stimulated uninfected human PBM cells (3.8×10^5 cells/ml) were cultured in the presence and absence of drug under similar conditions as those used for the antiviral assay described above. The cells were counted after 6 days using a hemacytometer and the trypan blue exclusion method, as described by Schinazi, et al., (Antimicrobial Agents and Chemotherapy, 22(3), 499 (1982)).

The subject of assay [3] is HIV-1 (strain LAV). Format: cell-based. The protocol: The ability of nucleosides to inhibit HIV can be measured by various experimental techniques. The technique used herein, and described in detail below, measures the inhibition of viral replication in phytohemaggluinin (PHA) stimulated human peripheral blood mononuclear (PBM) cells infected with HIV-1 (strain LAV). The amount of virus produced is determined by measuring the virus-coded reverse transcriptase enzyme. The amount of enzyme produced is proportional to the amount of virus produced.
Three-day old phytohemagglutinin-stimulated PBM cells (10^6 cells/ml) from hepatitis B and HIV-1 seronegative healthy donors were infected with HIV-1 (strain LAV) at a concentration of about 100 times the 50% tissue culture infections dose (TICD 50) per ml and cultured in the presence and absence of various concentrations of antiviral compounds.
Approximately one hour after infection, the medium, with the compound to be tested (2 times the final concentration in medium) or without compound, was added to the flasks (5 ml; final volume 10 ml). AZT was used as a positive control.
The cells were exposed to the virus (about 2×10^5 dpm/ml, as determined by reverse transcriptase assay) and then placed in a CO2 incubator. HIV-1 (strain LAV) was obtained from the Center for Disease Control, Atlanta, Ga. The methods used for culturing the PBM cells, harvesting the virus and determining the reverse transcriptase activity were those described by McDougal, et al. (J. Immun. Meth. 76, 171-183, 1985) and Spira, et al. (J. Clin. Meth. 25, 97-99, 1987), except that fungizone was not included in the medium (see Schinazi, et al., Antimicrob. Agents Chemother. 32, 1784-1787 (1988); Id., 34:1061-1067 (1990)).
On day 6, the cells and supernatant were tnansferred to a 15 ml tube and centrifuged at about 900 g for 10 minutes. Five ml of supernatant was removed and the virus was concentrated by centrifugation at 40,000 rpm for 30 minutes (Beckman 70.1 Ti rotor). The solubilized virus pellet was processed for determination of the levels of reverse transcriptase. Results are expressed in dpm/ml of sampled supernatant. Virus from smaller volumes of supernatant (1 ml) can also be concentrated by centriguation prior to solubilization and determination of reverse transcriptase levels.
The median effective (EC50) concentration was determined by the median effect-method (Antimicrob. Agents Chemother. 30, 491-498 (1986)). Briefly, the percent inhibition of virus, as determined from measurements of reverse transcriptase, is plotted versus the micromolar concentration of compound.

Assay [4] concerns Vero cells. Description: Toxicity in Vero cells. In kind it is cell-based.
For assay [5], the system named is Cloned M184 HIV-1 (M184V). Description: Anti-HIV activity in PBM cells infected with cloned M184V HIV-1 (mutation at codon 184 of reverse transcriptase gene). In kind it is cell-based. To be noted: for FI EC50 (fold increase): EC50 data from cloned virus/EC50 data from xxBRU; for FI EC90 (fold increase): EC90 M184V versus xxBRU; for EC50 / EC90: Virus M184V; for EC50 / EC90 / activity against the mutated virus: PBM cells; for activity against the mutated virus: HIV with mutation at codon 184 in reverse transcriptase gene.

Assay [6] relates to xxBRU HIV-1. Description: Anti-HIV activity in PBM cells, virus xxBRU. Format: cell-based.
Assay [7] has as its system HIV. To be noted: comparison with AZT; cited from earlier work.
[8] abbreviates: mitogen-stimulated uninfected human PBM cells, read-out: Toxicity (IC50 μM) PMB.
[9] abbreviates: PBM cells, HIV-1 strain LAV, estimated 10% error factor, read-out: Anti-HIV Activity in PBM Cells (EC50 μM).
Where [10] appears, read: Table 5, cytotoxicity in PBM cells, read-out: IC50 PBM.
The mark [11] stands for this setting: Table 5, anti-HIV activity in PBM cells.
Setting [12] is: Table 5, anti-HIV activity in PBM cells, read-out: EC50.

Where two headings read alike, the source gives them in different places.

The term IC50 denotes the concentration needed to halve the response being measured. As a reminder, the EC50 is the concentration that produces a half-maximal response. For `Nc1ccn(C2C[Se]C(CO)O2)c(=O)n1` (centres unmarked), the IC50 in assay [1], in assay [2] (setting [8]) and in assay [4] was over 100 µM in each case. Further, in assay [3] (setting [9]), the EC50 was 0.88 µM.
The EC90 is the point of the concentration-response curve where the effect stands at 90%. A lower EC90 goes with an effect from little substance. As to `Nc1nc(=O)n(C2C[Se]C(CO)O2)cc1F` (racemic) [(±)-β-Se-FddC, 2-hydroxymethyl-4-(N-5′-flurocytosin-1′-yl)-1,3-oxaselenolane], in assay [5], the “FI EC50 (fold increase)” value is listed as 59, the “FI EC90 (fold increase)” value amounted to 49, the concentration giving a half-maximal response (EC50) was found to be 108 µM and the EC90 turned out to be 337 µM. Besides, in assay [2] (setting [10]), the concentration for half-maximal inhibition (IC50) was over 100 µM. The molecule also displayed a 90% effect concentration (EC90) in assay [3] (setting [11]) of 16.4 µM. Moreover, in assay [3] (setting [12]), the EC50 is 5.55 µM.
`Nc1ccn(C2C[Se]C(CO)O2)c(=O)n1` (racemic) [(±)-β-Se-ddC]: the 50% effective concentration (EC50) came out at 1.84 µM in assay [6] and 2.69 µM in assay [3] (setting [12]). Moreover, the EC90 in assay [6] stood at 6.9 µM; in assay [3] (setting [11]) it was 209 µM. Besides, the “activity against the mutated virus” value in assay [5] is given as “significant activity”. In addition, in assay [2] (setting [10]), the IC50 was over 100 µM.
With `Nc1ccn(C2CSC(CO)O2)c(=O)n1` (racemic) [BCH-189, 2-hydroxymethyl-5-(cytosin-1-yl)-1,3-oxathiolane], the “activity against HIV relative to AZT” value in assay [7] is reported as “approximately the same activity against HIV as AZT”.
For `Nc1nc(=O)n(C2C[Se]C(CO)O2)cc1F` [(+)-β-Se-FddC, 1-β-D-(2′-hydroxymethyl-1′,3′-oxaselenolane-5′-yl)-5-fluorocytosine], in assay [5], the “FI EC50 (fold increase)” value is reported as over 6, the “FI EC90 (fold increase)” value was over 1, the EC50 was over 50 µM and the 90% effect concentration (EC90) was over 50 µM. Also, in assay [2] (setting [10]), the IC50 was over 100 µM. This molecule also displayed a 90% effect concentration (EC90) in assay [3] (setting [11]) of 164 µM. Besides, the concentration for a half-maximal effect (EC50) in assay [3] (setting [12]) was determined as 41.9 µM.
Consider `Nc1ccn([C@@H]2C[Se][C@H](CO)O2)c(=O)n1` [(+)-β-Se-ddC, (+)-(2R,5S)-β-D-2′,3′-dideoxy-3′-seleno-cytidine], for which the 50% effective concentration (EC50) in assay [6] turned out to be 8.62 µM; in assay [3] (setting [12]) it was 3.39 µM. The 90% effect concentration (EC90) in assay [6] was found to be 35.1 µM; in assay [3] (setting [11]), 677 µM. In addition, the IC50 in assay [2] (setting [10]) is over 100 µM.
With `Nc1nc(=O)n(C2C[Se]C(CO)O2)cc1F` [(−)-β-Se-FddC, 1-β-L-(2′-Hydroxymethyl-1′,3′-oxaselenolane-5′-yl)-5-fluorocytosine], in assay [5], the “FI EC50 (fold increase)” value is over 455, the “FI EC90 (fold increase)” value was over 53, the 50% effective concentration (EC50) is over 50 µM and the concentration for an effect of 90% (EC90) was over 50 µM. In assay [2] (setting [10]), the half-maximal inhibitory concentration (IC50) is over 100 µM. For the same molecule, the concentration for an effect of 90% (EC90) in assay [3] (setting [11]) was 1.05 µM. Besides, the EC50 in assay [3] (setting [12]) was 0.21 µM.
As for `Nc1ccn([C@H]2C[Se][C@@H](CO)O2)c(=O)n1` [(−)-β-Se-ddC, (−)-(2S,5R)-β-L-2′,3′-dideoxy-3′-seleno-cytidine], the results for the EC50 in assay [6] and in assay [3] (setting [12]) were 0.11 µM and 0.88 µM, respectively. The EC90 in assay [6] came to 0.95 µM; in assay [3] (setting [11]), 5.42 µM. For the same molecule, the “activity against the mutated virus” value in assay [5] was “significant activity”. Besides, in assay [2] (setting [10]), the IC50 was over 100 µM.
For the molecule `Nc1nc(=O)n(C2C[Se]C(CO)O2)cc1F` (centres unmarked) [Compound 5-F-Cytosine], the IC50 in assay [1], in assay [2] (setting [8]) and in assay [4] was over 100 µM each time. Also, in assay [3] (setting [9]), the EC50 was 0.07 µM.

Source of the values: US6590107B1, “Synthesis, anti-human immunodeficiency virus, and anti-hepatitis B virus activities of 1,3-oxaselenolane nucleosides” (Emory University, priority 1997, dated 2003).
